Assay results from patent US20250230151A1, “COMPOUNDS FOR CANCERS DRIVEN BY BRAF MUTATION” (THE BOARD OF TRUSTEES OF THE UNIVERSITY OF ILLINOIS, priority 2021, published 2025).
Like-named read-outs stand apart in the source and are kept apart here.

Legend:
[1] = tested on: A375 cells; test: 72-hour cell viability assay (Alamar Blue), A375; type: cell-based, human; details: for IC50: 72-hour incubation, Alamar Blue, V600E BRAF
Protocol: (§1) Cell Culture and reagents. All cell lines were grown in a 37° C., 5% CO2, humidified environment, in media containing 1% penicillin/streptomycin. Cell culture conditions are as follows: MDCK cells transfected with MDR1 (or ABCB1) were obtained from the Netherlands Cancer Institute (Amsterdam, The Netherlands) and maintained in DMEM with 10% fetal bovine serum (FBS, Gemini). Traditional cell lines A375, CHL-1, B16F10, and U118MG were grown in DMEM with 10% FBS, SK-MEL-28, U87 and T98G in EMEM with 10% FBS, AM-38 in EMEM with 20% HI-FBS (Gibco), HT29 in McCoy's 5A with 10% FBS, HCT116 in RPMI with 10% FBS. Compounds were dissolved in DMSO (1% final concentration, Sigma-Aldrich) for cell culture studies.
(§2) Cell viability assays. Cells were harvested, seeded in a 96-well plate and allowed to adhere overnight. Compound was added to each well in DMSO (1% final concentration). Cells were incubated for 72 hours before viability was assessed by the Alamar Blue Assay. Raptinal ([…]) was used as a dead control.

[2] = tested on: HT29 cells; test: 72-hour cell viability assay (Alamar Blue), HT29; type: cell-based; details: colon
Protocol: as §1, §2

[3] = tested on: HCT116 cells; test: 72-hour cell viability assay (Alamar Blue), HCT116; type: cell-based
Protocol: as §1, §2

[4] = tested on: T98G cells; test: 72-hour cell viability assay (Alamar Blue), T98G; type: cell-based; details: WT BRAF
Protocol: as §1, §2

[5] = tested on: U87 cells; test: 72-hour cell viability assay (Alamar Blue), U87; type: cell-based; details: WT BRAF
Protocol: as §1, §2

[6] = biological target: T1, P-gp (Homo sapiens, UniProt P08183); test: MDR1-MDCK P-gp transwell bidirectional transport assay; type: in vitro ADME; details: for Papp A→B at 90 min, 10 µM / Papp B→A at 90 min, 10 µM / efflux ratio at 90 min, 10 µM / Papp at 90 min, 10 µM: dog; for Papp A→B at 90 min, 10 µM / Papp B→A at 90 min, 10 µM / efflux ratio at 90 min, 10 µM: MDCK-MDR1, MDR1-MDCK; for efflux ratio at 90 min, 10 µM: read-out: ER (efflux ratio) (converted); for Papp at 90 min, 10 µM: MDCK-MDR1, range of Papp A-B to B-A, read-out: cell culture permeabilities; for ER (efflux ratio) / Papp A-B / Papp B-A: MDR1-MDCK; for Papp A→B at 90 min, 10 µM / Papp B→A at 90 min, 10 µM / efflux ratio at 90 min, 10 µM / ER (efflux ratio) / Papp A-B / Papp B-A: 10 μM, 90 min
T1 construct: host or cells: MDCK (MDR1-MDCK)
T1 sequence (P08183 whole entry): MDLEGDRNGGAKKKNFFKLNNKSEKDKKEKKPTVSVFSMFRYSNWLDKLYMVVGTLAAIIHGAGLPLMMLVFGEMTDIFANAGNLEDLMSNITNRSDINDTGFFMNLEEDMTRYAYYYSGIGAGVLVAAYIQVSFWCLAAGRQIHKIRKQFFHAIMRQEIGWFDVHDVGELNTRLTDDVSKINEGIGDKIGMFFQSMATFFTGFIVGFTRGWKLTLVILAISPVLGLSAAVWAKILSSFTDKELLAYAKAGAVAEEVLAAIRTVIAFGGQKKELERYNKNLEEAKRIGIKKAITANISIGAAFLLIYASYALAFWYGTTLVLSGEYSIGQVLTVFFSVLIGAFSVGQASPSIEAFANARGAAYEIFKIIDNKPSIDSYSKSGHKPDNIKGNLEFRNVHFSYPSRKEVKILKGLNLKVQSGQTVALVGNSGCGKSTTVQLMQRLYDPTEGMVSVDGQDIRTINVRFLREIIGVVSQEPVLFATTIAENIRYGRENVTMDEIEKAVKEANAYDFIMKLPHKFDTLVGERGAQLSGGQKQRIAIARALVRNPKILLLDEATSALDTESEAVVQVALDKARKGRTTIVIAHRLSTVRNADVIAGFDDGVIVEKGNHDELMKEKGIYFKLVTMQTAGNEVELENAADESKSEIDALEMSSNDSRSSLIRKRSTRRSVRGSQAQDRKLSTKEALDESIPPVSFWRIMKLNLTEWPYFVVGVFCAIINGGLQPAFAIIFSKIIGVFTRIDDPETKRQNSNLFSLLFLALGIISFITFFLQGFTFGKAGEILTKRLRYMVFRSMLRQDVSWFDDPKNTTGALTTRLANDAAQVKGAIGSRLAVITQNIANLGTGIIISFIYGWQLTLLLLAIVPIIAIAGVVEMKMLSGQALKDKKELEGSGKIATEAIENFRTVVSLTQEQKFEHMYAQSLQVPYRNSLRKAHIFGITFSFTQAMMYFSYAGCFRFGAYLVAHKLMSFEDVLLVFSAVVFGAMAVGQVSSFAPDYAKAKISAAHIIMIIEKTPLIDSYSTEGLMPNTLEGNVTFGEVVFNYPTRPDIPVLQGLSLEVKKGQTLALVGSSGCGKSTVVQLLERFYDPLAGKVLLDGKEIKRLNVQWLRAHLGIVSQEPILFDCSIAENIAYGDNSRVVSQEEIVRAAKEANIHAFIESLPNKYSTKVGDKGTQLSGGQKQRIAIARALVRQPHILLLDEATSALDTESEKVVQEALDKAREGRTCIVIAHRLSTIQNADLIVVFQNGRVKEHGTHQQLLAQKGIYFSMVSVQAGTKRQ
Protocol: A novel compound collection composed of complex and diverse compounds derived from natural products, termed “Complexity-to-Diversity Collection” was employed. […] The CtD compounds were evaluated by the efflux pump and their permeability using the P-gp transwell assay using adapted and optimized known protocols. Compound transport across epithelial cells overexpressing P-gp from basolateral-to-apical and apical-to-basolateral directions were quantified to calculate permeability and efflux ratio.
P-gp transwell bidirectional transport assays. Unless noted otherwise, the transport assay was performed in triplicate in batches of 16 or 24 test compounds, with each batch containing quinidine as a substrate control and propranolol as a non-substrate control. MDR1-MDCK cells were plated at a density of 300,000 cells/cm^2 onto 96-well Falcon™ Multiwell Insert System with 1 µm pore polycarbonate filters with angled-bottom receiver plates (Coming) and were fed with the cell growth medium on day 2.
The donor solution was prepared by adding 1 mM DMSO stocks of compounds to make the final concentration […], and the receiver solution was prepared with equivalent volume of DMSO to make 1% DMSO in final assay chamber volumes.
After 80-96 hours since seeding, the growth media on both sides was aspirated. To the transwell plate (apical side), 50 μL of receiver and donor solutions prepared on a 96-well plate were added, and it was placed on top of a separate angled-bottom 96-well plate (basolateral side) containing 260 μL of receiver and donor solutions.
Following 90 minutes of incubation at 37° C. with shaking at 90 rpm, 20 μL aliquot of samples were taken from both the donor and receiver chambers, and the apical and basolateral sides. Aliquots of 4 test compounds were pooled for each category: apical-donor, apical-receiver, basolateral-donor, basolateral-receiver. To measure CO and mass balance, initial donor samples from both apical and basolateral side were set aside from the assay plate. Acetonitrile twice the volume of pooled samples was added and mixed thoroughly, and precipitated proteins were removed by centrifugation at 20,000 r.c.f for 10 minutes.
To ascertain the MDCK monolayer integrity, the solution on apical side contained 100 µM Lucifer Yellow (Millipore-Sigma). After 90 minutes of compound transport, Lucifer Yellow concentration in the basal well was measured using SpectraMax M3 (Molecular Devices) set to an excitation wavelength of 430 nm and an emission wavelength of 540 nm.
Samples were analyzed with the 5500 QTRAP LC/MS/MS system (AB Sciex) with a 1200 series HPLC system (Agilent Technologies) including a degasser, an autosampler, and a binary pump. The liquid chromatography separation was performed on an Agilent SB-Aq column (4.6×50 mm, 5 μm) (Agilent Technologies) with mobile phase A (0.1% formic acid in water) and mobile phase B (0.1% formic acid in acetonitrile). The flow rate was 0.3 ml min^−1. The linear gradient was optimized for each compound. The autosampler was set at 5° C. The injection volume was 15 μL. Mass spectra were acquired with both positive electrospray ionization at the ion spray voltage of 5,500 V and negative electrospray ionization at the ion spray voltage of −4,500 V. The source temperature was 450° C. The curtain gas, ion source gas 1, and ion source gas 2 were 33, 50 and 65, respectively. Multiple reaction monitoring was used to quantify metabolites.
Efflux data calculations.

[7] = tested on: MAPK signaling (phospho-MEK1/2, phospho-ERK1/2) in A375 cells; test: Immunoblotting of MEK1/2 and ERK1/2 phosphorylation, A375; type: cell-based, human; details: for dose-response of phospho-ERK1/2 inhibition: A375, 0.01-10 μM, 1 and 24 h; for inhibition of MAPK signaling (MEK1/2 and ERK1/2 phosphorylation): A375, 1 h of treatment; for inhibition of ERK1/2 phosphorylation after 24 h: A375, highest concentrations (10 μM)
Protocol: Immunoblotting. Cells were lysed using RIPA buffer containing phosphatase (BioVision) and protease inhibitor cocktail (Calbiochem). Protein concentration was determined using the BCA assay (Pierce). Cell lysates containing […] of protein were loaded into each lane of 4% to 20% gradient gels (Bio-Rad) for SDS-PAGE. Proteins were transferred onto PDVF membrane for Western blot analysis. Blots were blocked with BSA for one hour followed by incubation with primary antibody overnight (dilution according to manufacturer's protocols), and then secondary antibody was incubated for one hour. Blots were then imaged with a ChemiDoc Touch (Bio-Rad) after incubation with SuperSignal West Pico Solution (ThermoFischer) following manufacturer's protocols. All antibodies were purchased from Cell Signaling Technology: p-ERK (9101S), ERK (4695S), p-MEK (9121S), MEK (8727S), vinculin (13901S) Rabbit IgG-HRP (7074), […] (5125).

[8] = Homo sapiens, HT-29, V600E BRAF
[9] = Homo sapiens, HCT-116, WT BRAF, colon, read-out: HCT116 (WT) IC50
[10] = Homo sapiens, HCT-116, WT BRAF, read-out: HCT116 IC50
[11] = Homo sapiens, T98G, glioma, read-out: T98G (WT) IC50
[12] = Homo sapiens, T98G, read-out: T98G IC50
[13] = Homo sapiens, U-87 MG, read-out: U87 IC50
[14] = Homo sapiens, glioma, read-out: U87 (WT) IC50

Compound	IC50 ([1]; Homo sapiens, A-375, 72 h) [nM]	IC50 [2, 8] [nM]	IC50 [3, 9] [nM]	IC50 [3, 10] [nM]	IC50 [4, 11] [nM]	IC50 [4, 12] [nM]	IC50 [5, 13] [nM]	IC50 [5, 14] [nM]	Papp A→B at 90 min, 10 µM [6] [×10⁻⁶ cm/s]	Papp B→A at 90 min, 10 µM [6] [×10⁻⁶ cm/s]	efflux ratio at 90 min, 10 µM [6]	Papp at 90 min, 10 µM [6] [×10⁻⁶ cm/s]	dose-response of phospho-ERK1/2 inhibition [7]	inhibition of MAPK signaling (MEK1/2 and ERK1/2 phosphorylation) [7]	inhibition of ERK1/2 phosphorylation after 24 h [7]	other results
CCCS(=O)(=O)Nc1cc(Cl)cc(-c2nc(C(C)(C)C)sc2-c2ccnc(N)n2)c1F [6-261, N-(3-(5-(2-aminopyrimidin-4-yl)-2-(tert-butyl)thiazol-4-yl)-5-chloro-2-fluorophenyl)propane-1-sulfonamide]	2.8 ± 0.53	1.67 ± 0.36	> 1000	> 1000	> 1000	> 1000	> 1000	> 1000	4.92 ± 0.806	6.42 ± 2.45	1.4	4.9 to 6.4	clear dose-dependent inhibition	strongly inhibited	sustained	–
CCCS(=O)(=O)Nc1cc(Cl)cc(-c2nc(C(C)(C)C)sc2-c2ccnc(NCCCCC(=O)O)n2)c1F [6-263, 5-((4-(2-(tert-butyl)-4-(5-chloro-2-fluoro-3-(propylsulfonamido)phenyl)thiazol-5-yl)pyrimidin-2-yl)amino)pentanoic acid]	27.3 ± 3.01	21.4 ± 4.21	2100 ± 456	2100 ± 456	> 10000	> 10000	> 10000	> 10000	2.15 ± 0.07	2.49 ± 0.435	1.17	2.2 to 2.5	clear dose-dependent inhibition	strongly inhibited	sustained	–
CC(C)(C)c1nc(-c2cccc(NS(=O)(=O)c3c(F)cccc3F)c2F)c(-c2ccnc(N)n2)s1 [Dabrafenib, reference compound]	–	–	–	–	–	–	–	–	–	–	–	–	–	–	diminished inhibition	IC50 [1]: 7.46 ± 1.1 nM; IC50 ([1]; listed as 6-74): 5.38 ± 0.38 nM; % Emax ([1]; A375, 72-hour incubation): 65%; IC50 ([2]; V600E BRAF): 4.74 ± 0.84 nM; IC50 ([3]; WT BRAF, read-out: HCT116 IC50): > 1000 nM; IC50 ([4]; read-out: T98G IC50): > 1000 nM; IC50 ([5]; read-out: U87 IC50): > 1000 nM; ER (efflux ratio) [6]: 17.94 ± 6.97; Papp A-B [6]: 1.26 ± 0.672 ×10⁻⁶ cm/s; Papp B-A [6]: 13.2 ± 1.63 ×10⁻⁶ cm/s; Papp A-B ([6]; listed as 6-74): 1.257 ± 0.672 ×10⁻⁶ cm/s; Papp B-A ([6]; listed as 6-74): 13.192 ± 1.632 ×10⁻⁶ cm/s; ER (efflux ratio) ([6]; listed as dabrafenib): 17.9
